Laboratory results: patent publication US8377974B2 (Millennium Pharmaceuticals, Inc., priority 2004, dated 2013)

Each compound was assayed against T1, human plasma protein factor Xa (Homo sapiens, UniProt P00742) (assay: Factor Xa IC50 determination: cleavage of paranitroanilide substrate S-2765 in 96-well plates). Conditions: fXa 1 nM, S-2765 100 μM, Tris buffered saline pH 7.4, room temperature.
T1 construct: measure proteolytic activity of the enzyme (factor Xa); purchased Haematologic Technologies (Essex Junction, Vt.); host or cells: human plasma
Format: biochemical
Summary of the method: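 Initial rates of S-2765 (100 μM final) cleavage, read at 405 nm for 2 min, fitted with a four-parameter equation to give IC50. Enzyme: 1 nM human plasma fXa, 5 min room-temperature preincubation with inhibitor (0.01 nM–10 μM) in 20 mM Tris, 150 mM NaCl, 5 mM CaCl2, 0.1% BSA, 5% DMSO, pH 7.4; duplicates.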

T1 sequence (P00742 235-488 limits assumed): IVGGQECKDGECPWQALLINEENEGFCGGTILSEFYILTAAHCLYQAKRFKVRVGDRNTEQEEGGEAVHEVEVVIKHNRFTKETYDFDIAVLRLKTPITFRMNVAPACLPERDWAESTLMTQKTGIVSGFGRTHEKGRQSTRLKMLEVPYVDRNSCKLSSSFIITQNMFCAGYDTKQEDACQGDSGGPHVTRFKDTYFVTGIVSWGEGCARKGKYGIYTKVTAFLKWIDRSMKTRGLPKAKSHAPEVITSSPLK
T1 sequence (P00742 41-179 partner limits assumed): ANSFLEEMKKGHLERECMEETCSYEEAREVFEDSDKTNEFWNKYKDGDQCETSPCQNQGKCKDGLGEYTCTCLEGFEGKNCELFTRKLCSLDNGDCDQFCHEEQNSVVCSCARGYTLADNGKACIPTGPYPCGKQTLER

Structure (SMILES) | IC50
O=C(NCc1cn(-c2ccc(N3CCOCC3=O)nc2)nn1)c1ccc(Cl)s1 [Example 387, 5-Chloro-N-((1-(6-(3-oxomorpholino)pyridin-3-yl)-1H-1,2,3-triazol-4-yl)methyl)thiophene-2-carboxamide] | ≤ 0.1 µM
O=C(NCc1cc(-c2ccc(Nc3ccccn3)cc2)no1)c1ccc(Cl)s1 [Example 252, 5-Chloro-thiophene-2-carboxylic acid {3-[4-(pyridin-2-ylamino)-phenyl]-isoxazol-5-ylmethyl}-amide] | ≥ 0.5 µM
O=C(NCC1CC(C2CCN(Cc3ccccc3)CC2)=NO1)c1ccc(Cl)s1 (stereo not shown) [Example 170, 5-Chloro-thiophene-2-carboxylic acid [3-(1-benzyl-piperidin-4-yl)-4,5-dihydro-isoxazol-5-ylmethyl]-amide] | ≥ 0.5 µM
CN(C)C(=N)c1ccc(C2=NOC(CNC(=O)c3ccc(Cl)s3)C2)c(N2CCCC2)c1 (stereo not shown) [Example 78, 5-Chloro-thiophene-2-carboxylic acid {3-[4-(N,N-dimethyl-carbamimidoyl)-2-pyrrolidin-1-yl-phenyl]-4,5-dihydro-isoxazol-5-ylmethyl}-amide] | 0.1 to 0.5 µM
N=C(N)N1CCC(c2cc(CNC(=O)c3ccc(Cl)s3)on2)CC1 [Example 179, 5-Chloro-thiophene-2-carboxylic acid [3-(1-carbamimidoyl-piperidin-4-yl)-isoxazol-5-ylmethyl]-amide] | ≥ 0.5 µM
COC(=O)c1cccc(Nc2ccc(C3=NOC(CNC(=O)c4ccc(Cl)s4)C3)cc2)c1 (stereo not shown) [Example 261, 3-[4-(5-{[(5-Chloro-thiophene-2-carbonyl)-amino]-methyl}-4,5-dihydro-isoxazol-3-yl)-phenylamino]-benzoic acid methyl ester] | ≥ 0.5 µM
O=C(NCc1cc(-c2ccc(-c3ccccc3CN3CCCC3)cc2)no1)c1ccc(Cl)s1 [Example 210, 5-Chloro-thiophene-2-carboxylic acid [3-(2′-pyrrolidin-1-ylmethyl-biphenyl-4-yl)-isoxazol-5-ylmethyl]-amide] | 0.1 to 0.5 µM
C#CCN(C)C(=N)c1ccc(-c2cc(CN(C)C(=O)c3ccc(Cl)s3)on2)cc1 [Example 47, 5-Chloro-thiophene-2-carboxylic acid methyl-{3-[4-(N-methyl-N-prop-2-ynyl-carbamimidoyl)-phenyl]-isoxazol-5-ylmethyl}-amide] | ≥ 0.5 µM
CN(Cc1cc(-c2ccc(C3=NCCN3C)cc2)no1)C(=O)c1ccc(Cl)s1 [Example 36, 5-Chloro-thiophene-2-carboxylic acid methyl-{3-[4-(1-methyl-4,5-dihydro-1H-imidazol-2-yl)-phenyl]-isoxazol-5-ylmethyl}-amide] | ≥ 0.5 µM
O=C(NCc1cc(-c2ccc(Nc3cccnc3)cc2)no1)c1ccc(Cl)s1 [Example 253, 5-Chloro-thiophene-2-carboxylic acid {3-[4-(pyridin-3-ylamino)-phenyl]-isoxazol-5-ylmethyl}-amide] | ≤ 0.1 µM
N=C(c1ccc(-c2noc(CNC(=O)c3ccc(Cl)s3)n2)cc1)N1CCCCC1 [Example 337, 5-Chloro-N-((3-(4-(imino(piperidin-1-yl)methyl)phenyl)-1,2,4-oxadiazol-5-yl)methyl)thiophene-2-carboxamide] | ≤ 0.1 µM
N=C(c1ccc(-n2cc(CNC(=O)c3ccc(Cl)s3)nn2)c(F)c1)N1CCCC1 [Example 322, 5-Chloro-N-((1-(2-fluoro-4-(imino(pyrrolidin-1-yl)methyl)phenyl)-1H-1,2,3-triazol-4-yl)methyl)thiophene-2-carboxamide] | ≤ 0.1 µM
CN(C)C(=N)c1ccc(C2=NOC(CNC(=O)c3ccc(Cl)s3)C2)c(N2CCOCC2)c1 (stereo not shown) [Example 82, 5-Chloro-thiophene-2-carboxylic acid {3-[4-(N,N-dimethyl-carbamimidoyl)-2-morpholin-4-yl-phenyl]-4,5-dihydro-isoxazol-5-ylmethyl}-amide] | ≤ 0.1 µM
O=C(NCc1cn(-c2ccc(N3CCCNCC3)nc2)nn1)c1ccc(Cl)s1 [Example 384, N-((1-(6-(1,4-Diazepan-1-yl)pyridin-3-yl)-1H-1,2,3-triazol-4-yl)methyl)-5-chlorothiophene-2-carboxamide] | ≤ 0.1 µM
CN(C)C(=N)c1ccc(-c2nc(CNC(=O)c3ccc(Cl)s3)cs2)cc1 [Example 350, N-((2-(4-(N,N-Dimethylcarbamimidoyl)phenyl)thiazol-4-yl)methyl)-5-chlorothiophene-2-carboxamide] | 0.1 to 0.5 µM
CCOc1cc(C(=N)N2CCCC2)ccc1C1=NOC(CNC(=O)c2ccc(Cl)s2)C1 (stereo not shown) [Example 108, 5-Chloro-thiophene-2-carboxylic acid {3-[2-ethoxy-4-(imino-pyrrolidin-1-yl-methyl)-phenyl]-4,5-dihydro-isoxazol-5-ylmethyl}-amide] | ≤ 0.1 µM
CCCN(C)C(=N)c1ccc(-c2cc(CNC(=O)c3ccc(Cl)s3)on2)cc1 [Example 29, 5-Chloro-thiophene-2-carboxylic acid {3-[4-(N-methyl-N-propyl-carbamimidoyl)-phenyl]-isoxazol-5-ylmethyl}-amide] | ≤ 0.1 µM

Structure (SMILES) | IC50
CC1(CNC(=O)c2ccc(Cl)s2)CC(c2ccc(C(=N)N3CCCCC3)cc2)=NO1 (stereo not shown) [Example 60, 5-Chloro-thiophene-2-carboxylic acid {3-[4-(imino-piperidin-1-yl-methyl)-phenyl]-5-methyl-4,5-dihydro-isoxazol-5-ylmethyl}-amide] | ≤ 0.1 µM
CN(C)Cc1cccc(-c2ccc(-c3cc(CNC(=O)c4ccc(Cl)s4)on3)cc2)c1 [Example 211, 5-Chloro-thiophene-2-carboxylic acid [3-(3′-dimethylaminomethyl-biphenyl-4-yl)-isoxazol-5-ylmethyl]-amide] | 0.1 to 0.5 µM
COCCN(C)c1cc(C2=NCCN2C)ccc1C1=NOC(CNC(=O)c2ccc(Cl)s2)C1 (stereo not shown) [Example 87] | 0.1 to 0.5 µM
CNC(=N)c1ccc(-c2nc(CNC(=O)c3ccc(Cl)s3)cs2)cc1 [Example 358, N-((2-(4-(N-Methylcarbamimidoyl)phenyl)thiazol-4-yl)methyl)-5-chlorothiophene-2-carboxamide] | ≥ 0.5 µM
O=C(NCC1CC(c2cccc(-c3ccccc3CN3CCCC3)c2)=NO1)c1ccc(Cl)s1 (stereo not shown) [Example 263, 5-Chloro-thiophene-2-carboxylic acid [3-(2′-pyrrolidin-1-ylmethyl-biphenyl-3-yl)-4,5-dihydro-isoxazol-5-ylmethyl]-amide] | ≥ 0.5 µM
CN(C)C(=N)c1ccc(-c2cccc(CNC(=O)c3ccc(Cl)s3)c2)cc1 [Example 380, N-((3-(4-(N,N-Dimethylcarbamimidoyl)phenyl)phenyl)methyl)-5-chlorothiophene-2-carboxamide] | ≤ 0.1 µM
COc1ccc(CN2CCCC2)c(-c2ccc(-c3cc(CNC(=O)c4ccc(Cl)s4)on3)cc2)c1 [Example 216, 5-Chloro-thiophene-2-carboxylic acid [3-(5′-methoxy-2′-pyrrolidin-1-ylmethyl-biphenyl-4-yl)-isoxazol-5-ylmethyl]-amide] | ≤ 0.1 µM
O=C(O)c1ccc(-c2cc(CNC(=O)c3ccc(Cl)s3)on2)cc1 [Example 159, 4-(5-{[(5-Chloro-thiophene-2-carbonyl)-amino]-methyl}-isoxazol-3-yl)-benzoic acid] | ≥ 0.5 µM
CC(C)N1CCC(C2=NOC(CNC(=O)c3ccc(Cl)s3)C2)CC1 (stereo not shown) [Example 171, 5-Chloro-thiophene-2-carboxylic acid [3-(1-isopropyl-piperidin-4-yl)-4,5-dihydro-isoxazol-5-ylmethyl]-amide] | ≥ 0.5 µM
CN1CCN(c2ccc(C3=NOC(CNC(=O)c4ccc(Cl)s4)C3)cc2)CC1 (stereo not shown) [Example 235, 5-Chloro-thiophene-2-carboxylic acid {3-[4-(4-methyl-piperazin-1-yl)-phenyl]-4,5-dihydro-isoxazol-5-ylmethyl}-amide] | 0.1 to 0.5 µM
N=C(c1ccc(C2=NOC(CNC(=O)c3ccc(Cl)s3)C2)c(N2CCOCC2)c1)N1CCCC1 (stereo not shown) [Example 84, 5-Chloro-thiophene-2-carboxylic acid {3-[4-(imino-pyrrolidin-1-yl-methyl)-2-morpholin-4-yl-phenyl]-4,5-dihydro-isoxazol-5-ylmethyl}-amide] | 0.1 to 0.5 µM
N=C(c1ccc(-n2cc(CNC(=O)c3ccc(Cl)s3)cn2)cc1)N1CCC1 [Example 327, N-((1-(4-(Azetidin-1-yl(imino)methyl)phenyl)-1H-pyrazol-4-yl)methyl)-5-chlorothiophene-2-carboxamide] | ≤ 0.1 µM
CN1CCN(c2ccc(C3=NOC(CNC(=O)c4ccc(Cl)s4)C3)cc2)C1=O (stereo not shown) [Example 245, 5-Chloro-thiophene-2-carboxylic acid {3-[4-(3-methyl-2-oxo-imidazolidin-1-yl)-phenyl]-4,5-dihydro-isoxazol-5-ylmethyl}-amide] | ≤ 0.1 µM
O=C(NCC1CC(c2ccc(N3CCN(C(=O)OCc4ccccc4)CC3=O)cc2)=NO1)c1ccc(Cl)s1 (stereo not shown) [Example 242, 4-[4-(5-{[(5-Chloro-thiophene-2-carbonyl)-amino]-methyl}-4,5-dihydro-isoxazol-3-yl)-phenyl]-3-oxo-piperazine-1-carboxylic acid benzyl ester] | ≤ 0.1 µM
O=C(NCc1cc(-c2cccc(-c3ccc(CN4CCCC4)cc3)c2)no1)c1ccc(Cl)s1 [Example 273, 5-Chloro-thiophene-2-carboxylic acid [3-(4′-pyrrolidin-1-ylmethyl-biphenyl-3-yl)-isoxazol-5-ylmethyl]-amide] | ≥ 0.5 µM
CN1CCN=C1c1ccc(-n2cc(CNC(=O)c3ccc(Cl)s3)nn2)cc1 [Example 312, 5-Chloro-N-((1-(4-(1-methyl-4,5-dihydro-1H-imidazol-2-yl)phenyl)-1H-1,2,3-triazol-4-yl)methyl)thiophene-2-carboxamide] | ≤ 0.1 µM
N=C(c1ccc(-c2cncc(CNC(=O)c3ccc(Cl)s3)c2)cc1)N1CCCC1 [Example 372, 5-Chloro-N-((5-(4-(imino(pyrrolidin-1-yl)methyl)phenyl)pyridin-3-yl)methyl)thiophene-2-carboxamide] | ≤ 0.1 µM
